Assay results reported in patent US10457707B2, “Substituted urea depsipeptide analogs as activators of the CLPP endopeptidase” (priority 2015, dated 2019).
Values after ≈ are worked out from the molar mass of the structure shown. *1 amine or outer side, *2 acyl side, *3 side chain or, on linkers, in order; H or OH if unused. Where a SMILES comes first, the peptide text is derived from it. Bridges are numbered along the chain shown (N, C = ends). [ ]: non-standard residue; d: D form. The star is where a group is joined. Piperazine(2S-CO,4-Me) = CN1CCN[C@H](C(=O)O)C1; Phe(3,5-F2) = N[C@@H](Cc1cc(F)cc(F)c1)C(=O)O; Morpholine(3S-CO) = O=C(O)[C@@H]1COCCN1; NH(4-Cl-2-F-phenyl) = Fc1cc(Cl)ccc1N*; Pro(4R-Me) = C[C@H]1CN[C@H](C(=O)O)C1; Hyp = O=C(O)[C@@H]1C[C@@H](O)CN1; aThr = C[C@H](O)[C@H](N)C(=O)O; X1 = N#Cc1cc(N*)ccc1F; CO = O=C([*:1])[*:2]

Columns and labels:
Format in all cases: cell-based
[1] = tested on: Bacillus subtilis, ATCC 23857; assay: Minimal inhibitory concentration assay (microbroth dilution); settings: Bacillus subtilis, ATCC23857; read-out: Minimal Inhibitory Concentrations B. subtilis ATCC 23857
Summary of the method: (§1)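 Compound is serially diluted two-fold in the appropriate broth, and bacterial inoculum at about 10^5 cfu/mL is added so the highest final concentration is 200 μM. Plates stay overnight at 37 °C under aerobic conditions before growth is scored by eye.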

[2] = tested on: Staphylococcus aureus, NRS70; assay: as above; settings: Staphylococcus aureus, NRS70; read-out: Minimal Inhibitory Concentrations S. aureus NRS70
Summary of the method: as §1

[3] = tested on: Staphylococcus aureus, ATCC 29213; assay: as above; settings: ATCC29213, read-out: Minimal Inhibitory Concentrations S. aureus ATCC 29213
Summary of the method: as §1

[4] = tested on: Streptococcus pneumoniae, R6; assay: Minimal inhibitory concentration assay; settings: read-out: Minimal Inhibitory Concentrations S. pneumoniae R6
Summary of the method: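 Microbroth dilution with two-fold serial compound dilutions in broth, incubated aerobically overnight at 37° C. MIC taken as the lowest concentration preventing bacterial growth.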

Compound	MIC [1] [µM]	MIC [2] [µM]	MIC [3] [µM]	MIC [4] [µM]
C[C@@H]1C[C@H]2C(=O)OC[C@H](NC(=O)[C@H](Cc3cc(F)cc(F)c3)NC(=O)Nc3ccc4c(c3)OCO4)C(=O)N3C[C@H](O)C[C@H]3C(=O)N3CCCCC3C(=O)N[C@@H](C)C(=O)N2C1 (stereo partly drawn) [Compound 325, (S)-2-(3-(benzo[d][1,3]dioxol-5-yl)ureido)-3-(3,5-difluorophenyl)-N-((2R,6S,8aR,14aS,16R,20S,23aS)-16-hydroxy-2,6-dimethyl-5,8,14,19,23-pentaoxooctadecahydro-1H,5H,14H,19H-pyrido[2,1-i]dipyrrolo[2,1-c:2′,1′-l][1]oxa[4,7,10,13]tetraazacyclo-hexadecin-20-yl)propanamide]	2.5 (≈ 2.1 µg/mL)	1.25 (≈ 1.05 µg/mL)	1.25 (≈ 1.05 µg/mL)	0.078 (≈ 0.0655 µg/mL)
C[C@@H]1C[C@H]2C(=O)O[C@@H](C)[C@H](NC(=O)[C@H](Cc3cc(F)cc(F)c3)NC(=O)Nc3ccc(F)c(C#N)c3)C(=O)N3C[C@H](O)C[C@H]3C(=O)N3CCOC[C@H]3C(=O)N[C@@H](C)C(=O)N2C1 [Compound 326, (S)-2-(3-(3-cyano-4-fluorophenyl)ureido)-3-(3,5-difluorophenyl)-N-((6aS,8R,12S,13S,15aS,17R,21S,23aS)-8-hydroxy-13,17,21-trimethyl-6,11,15,20,23-pentaoxooctadecahydro-6H,11H,15H-[1,4]oxazino[3,4-i]dipyrrolo[2,1-c:2′,1′-l][1]oxa[4,7,10,13]tetraazacyclo-hexadecin-12-yl)propanamide] ({X1-CO}-[Phe(3,5-F2)][aThr][Hyp][Morpholine(3S-CO)]A[Pro(4R-Me)]; ester 2-C)	20 (≈ 17.1 µg/mL)	2.5 (≈ 2.14 µg/mL)	10 (≈ 8.55 µg/mL)	0.625 (≈ 0.534 µg/mL)
C[C@@H]1C[C@H]2C(=O)OC[C@H](NC(=O)[C@H](Cc3cc(F)cc(F)c3)NC(=O)Nc3ccc(Cl)cc3F)C(=O)N3CCC[C@H]3C(=O)N3CCN(C)C[C@H]3C(=O)N[C@@H](C)C(=O)N2C1 [Compound 330, (S)-2-(3-(4-chloro-2-fluorophenyl)ureido)-3-(3,5-difluorophenyl)-N-((6aS,12S,15aS,17R,21S,23aS)-2,17,21-trimethyl-6,11,15,20,23-pentaoxooctadecahydro-2H,6H,11H,15H-pyrazino[2,1-i]dipyrrolo[2,1-c:2′,1′-l][1]oxa[4,7,10,13]tetraazacyclohexadecin-12-yl)propanamide] ({NH(4-Cl-2-F-phenyl)-CO}-[Phe(3,5-F2)]SP[Piperazine(2S-CO,4-Me)]A[Pro(4R-Me)]; ester 2-C)	< 0.02	0.078 (≈ 0.0661 µg/mL)	0.078 (≈ 0.0661 µg/mL)	0.039 (≈ 0.033 µg/mL)
